The values below come from patent EP0152799A1, “Compounds having peripheral calcium antagonist, anticonvulsive and eumetabolic activity, processes for the preparation thereof and pharmaceutical compositions containing them” (PULITZER ITALIANA S.p.A., priority 1984, dated 1985).

Assay [1] relates to Rat hind quarters. Description: Rat hind quarters perfused with hyperkaliemic tyrode (vasodilative activity). Conditions: 5 x 10^-5 M; for Perfusion pressure after 10' / Perfusion pressure basal: hyperkaliemic tyrode; for Perfusion pressure Δ: basal minus after 10'. From the text: The vasodilative activity of PU 122 in comparison with Flunarizine was further evaluated according to the procedure described by F.N. Fastier and F.H. Smirk, (J. Pharm. Exp. Therap. 89, 256-270; […]), by measuring the antagonist action of the test compound against hyperkaliemia induced vasoconstric- tion.
The compounds under test were used at 5.10^-5 M concentration.

The test system of assay [2] is cerebral district. Nature of the assay: Cerebral perfusion in the rabbit (cerebral vasodilative activity). The following applies: 0.9 uM i.a.; for Area mm^2 / Difference in pressure / Δ: perfusion of the cerebral district. The format is in vivo. The protocol: The cerebral vasodilative activity of PU 122 in comparison with Flunarizine was tested by the method of the cerebral perfusion in the rabbit according to the procedure of Von P. Vaupel e H. Hutten (1980), by measurement of the decrease of the peripheral resistances in the cerebral district.
Said changement was determined by means of a transducer, by measuring the hematic pressure at the cerebral level and scoring the lasting of action of the compound under test.
The two test compounds were administered by intraarterial route at the dosage of 0.9 uM, in a volume of 0.2 ml for each animal.

Assay [3] deals with human platelet rich plasma (PRP). Nature of the assay: Platelet aggregation induced by ADP. Format: cell-based. The following applies: compared with acetylsalicylic acid. The protocol:
The inhibitory effect on platelet aggregation induced BY ADP on human platelet rich plasma (PRP) was evaluated for PU 122 in comparison with acetylsalicy lie acid, according to the procedure described by G.V.R. Born (Nature, 194, 927; 1962).

For assay [4], the system named is rat brain synaptosomes. Nature of the assay: 45 Ca uptake in synaptosomial preparations (Ca antagonist activity). Format: biochemical. The following applies: concentration not given.

As for `Fc1ccc(C(c2ccc(F)cc2)N2CCN(C/C=C/c3ccccc3)CC2)cc1` [Flunarizine, reference compound], in assay [1], the “Perfusion pressure after 10'” value was 95.00, the “Perfusion pressure Δ” value worked out at 80.00 and the Perfusion pressure basal was 175.00. Besides, in assay [2], the “Lasting of the effect” value came to 12.50 min, the “Area mm^2” value worked out at 314.2 mm^2, the Difference in pressure is 10.25 and the Δ is listed as 25.12.

As to `COc1ccc(C=CCN2CCN(C(c3ccc(F)cc3)c3ccc(F)cc3)CC2)cc1OC.Cl.Cl` [PU 122, 1-(4,4'-Difluorobenzhydryl)-4-(3,4-dimethoxycinnamyl)piperazine dihydrochloride], in assay [1], the “Perfusion pressure after 10'” value is listed as 90.00, the “Perfusion pressure Δ” value is 105.00 and the Perfusion pressure basal was 195.00. Besides, the “IC50 platelet antiaggregating activity” value in assay [3] is recorded as “substan tially better than that of acetylsalicylic acid”. In addition, in assay [2], the “Lasting of the effect” value is 16.70 min, the “Area mm^2” value is on record as 487.14 mm^2, the Difference in pressure is reported as 18.75 and the Δ is 29.17. Besides, in assay [4], the “Ca antagonist activity (effect on 45 Ca uptake)” value is given as -16.4%.
